Read-outs that look alike come from different tables or passages of the source.

The nature of series [1]: Lipophilicity LogDpH=7.4, shake flask method. In kind it is physicochemical. Particulars: PBS (pH = 7.4)/n-octanol, mean of n = 8. The procedure:
The LogDpH=7.4 was determined using a modified shake flask method as previously described.

Series [2] has as its target T1, human serum albumin (HSA) (Homo sapiens, UniProt P02768).
T1 construct: purchased H13H-2433
The experiment in a line: HSA binding by high performance affinity chromatography (HPAC). The class given is in vitro ADME. How it is done:
For the determination of binding to human serum albumin (HSA) using HPLC, a Chiralpak HSA column (50 × 3 mm, 5 μm, H13H-2433) was used at a constant flow rate of 0.5 ml/min. The mobile phase (A: NH4OAc, 50 mM in H2O, pH 6.9 and B: iPrOH) was freshly prepared for each day.

The subject of the next series is AR42J cells. As to the kind of experiment: Internalization into AR42J cells relative to [125I]TOC. The class given is cell-based. As to conditions: percentage compared to internal reference [125I]TOC. How it is done:
AR42J cells (European Collection of Cell Cultures, Salisbury, UK) were grown in RPMI 1640 medium (with 2 mM, L-Glu, 10% FCS; v/v, 37 °C, 5% CO2), harvested 24 ± 2 h and seeded in 24-well poly-L-lysine plates (2.0 × 10^5 cells/well in 1 ml culture medium). After removal of the medium, the cells were washed with assay medium (300 µl, RPMI 1640 with 2 mM L-Glu, 5% BSA; v/v) and incubated in assay medium (200 µl, 15 min, 37 °C, 5% CO2). 25 µl of the ^18F-labeled ligand (20 nM) and [^125I]TOC (1 nM) in assay medium were added followed by either 25 µl TOC in assay medium (100 µM, competition experiment) or 25 µl of assay medium (internalization experiment). Cells were incubated at 37 °C for 15, 30, and 60 min (n = 3 per compound and time point), respectively, and chilled on ice. The supernatant was collected, the well washed with ice-cold RPMI 1640 (300 µl), and the two fractions combined (unbound ligand). The cells were incubated with acid wash solution (300 µl, 0.9% NaCl, 50 mM NaOAc/AcOH buffer, pH = 4.6, 15 min, 4 °C) to remove receptor-bound radioligand. The supernatant was collected, and the cells washed with 300 µl ice-cold acid wash solution (combined fractions: acid releasable, receptor bound ligand). The cells were lysed with NaOH solution (300 µl, 1 M, 15 min, RT), washed with 300 µl of the same solution, the two fractions combined (internalized ligand), and all activities quantified using a γ-counter.

The nature of series [3]: Biodistribution 1 h p.i. in AR42J xenograft bearing CD1 nu/nu mice. Particulars: female, mouse, intravenous, total radioactivity, average ± Stdev. In kind it is in vivo. How it is done:
(§1) The 8-week-old female CD1 nu/nu mice were purchased from Charles River (Sulzfeld, Germany). Animal experiments were conducted according to general animal welfare regulations (German animal protection act, as amended on 18.05.2018, Art. 141 G v. 29.3.2017 I 626, approval no. 55.2-1.2-54–2532-71-13 by the General Administration of the Free State of Bavaria; Swiss animal welfare regulations: Animal Welfare Act SR 455, license: Canton de Vaud, 3781 d). To establish tumor xenografts, AR42J cells (5 × 10^6 cells in 100 µl serum-free culture medium) were inoculated subcutaneously onto the shoulder. Mice were used for experiments when tumors had grown to a diameter of 5–9 mm (7–15 days after inoculation).
Approximately 0.5–2.5 MBq (0.05–0.20 nmol) of the ^18F-labeled ligands were injected into the tail vein of AR42J xenograft-bearing mice under isoflurane anesthesia (1.5% alveolar concentration). The mice were sacrificed 1 h post injection (n = 3–5). Organs were removed, weighed, and the activity quantified (γ-counter).
An unpaired Welch’s t-test was applied using the GraphPad Prism software (version 10.1.2). Standard deviations for tumor-to-organ (T/O) ratios were calculated using the rules of error propagation. Thresholds for statistical significance are defined as: p > 0.05 (ns); p ≤ 0.05 (*); p ≤ 0.01 (**); p ≤ 0.001 (***); p ≤ 0.0001 (****).

A further series concerns the target T2, SST2 (AR42J tumor) (Rattus norvegicus, UniProt P30680).
T2 construct: endogenous in cells; host or cells: AR42J xenograft in CD1 nu/nu mice
As to the kind of experiment: µPET/CT imaging with and without octreotide blocking in AR42J tumor bearing mice. In kind it is in vivo. Particulars: 60 min p.i. How it is done:
as §1
4–5 MBq (0.3–0.5 nmol) of the ^68Ga-labeled SST2-ligand were injected into the tail vein of the xenograft-bearing mice. After 1 h, the mice were anesthetized (isoflurane: 1.5% alveolar concentration) and a PET image acquired (20 min, 32 × 32, 0.5 mm) using an Albira PET/SPECT/CT (Bruker Biospin Corporation, Woodbridge, CT, USA) followed by a CT scan (10 min). For blocking, 20 µg octreotide (0.8 mg/kg) were co-injected with the tracer. The images were reconstructed (Albira reconstructor, version NMI3.3) and analyzed (PMOD, V6.3.4, Bruker).

A short description of series [4]: In-vitro stability in PBS, human serum and mouse liver extract. The class given is in vitro ADME. As to conditions: 1 h, 37 °C, radio RP-HPLC. How it is done: [^natF][^68Ga]rhTATE (ca. 5 MBq) was added to 500 µl samples of mouse liver extract, human serum, or PBS, respectively. The mixtures were incubated at 37 °C for 60 min. Workup of blood and liver extract samples was performed using cartridge purification (StrataX cartridge, 33 μm Polymeric Reversed Phase, 500 mg; preconditioning: 500 µl MeOH, 5 ml H2O; washing: 3 ml H2O; elution: ACN/H2O (0.1% TFA, 1:3, v/v, 300 µl). The resulting eluates were analyzed using radio RP-HPLC (Chromolith^R RP-18e; 100 × 4.6 mm; Merck KGaA; gradient of 10–90% ACN in H2O (0.1% TFA) within 8 min; flow rate: 1 ml/min). For cross-validation of HPLC results, radio RP-TLC was equally performed for all samples (1 M citric acid/NaOH, pH = 5.0; Rf: Product: 0.0–0.2.0.2; ^68Ga: 0.8–1.0.8.0).

Details of series [5]: method as in PMID 10774879. As to conditions: PBS (pH = 7.4)/n-octanol; cited from earlier work.
The mark [6] stands for this setting: affinity to HSA by affinity chromatography (Chiralpak HSA column).
The mark [7] stands for this setting: adrenal glands, AR42J tumor-bearing CD1 nu/nu mice, read-out: Biodistribution Adrenal Glands.
The mark [8] stands for this setting: blood, AR42J tumor-bearing CD1 nu/nu mice, read-out: Biodistribution Blood.
The mark [9] stands for this setting: femur, AR42J tumor-bearing CD1 nu/nu mice, read-out: Biodistribution Femur.
[10] abbreviates: heart, AR42J tumor-bearing CD1 nu/nu mice, read-out: Biodistribution Heart.
The mark [11] stands for this setting: intestine, AR42J tumor-bearing CD1 nu/nu mice, read-out: Biodistribution Intestine.
Setting [12] is: kidney, AR42J tumor-bearing CD1 nu/nu mice, read-out: Biodistribution Kidney.
Where [13] appears, read: liver, AR42J tumor-bearing CD1 nu/nu mice, read-out: Biodistribution Liver.
The mark [14] stands for this setting: lung, AR42J tumor-bearing CD1 nu/nu mice, read-out: Biodistribution Lung.
The mark [15] stands for this setting: muscle, AR42J tumor-bearing CD1 nu/nu mice, read-out: Biodistribution Muscle.
Setting [16] is: pancreas, AR42J tumor-bearing CD1 nu/nu mice, read-out: Biodistribution Pancreas.
Setting [17] is: spleen, AR42J tumor-bearing CD1 nu/nu mice, read-out: Biodistribution Spleen.
Setting [18] is: stomach, AR42J tumor-bearing CD1 nu/nu mice, read-out: Biodistribution Stomach.
The mark [19] stands for this setting: tumor (AR42J xenograft), AR42J xenograft, CD1 nu/nu mice, read-out: Biodistribution Tumor.
[20] abbreviates: co-injection of 20 µg octreotide (0.8 mg/kg).

T2 sequence (P30680 whole entry): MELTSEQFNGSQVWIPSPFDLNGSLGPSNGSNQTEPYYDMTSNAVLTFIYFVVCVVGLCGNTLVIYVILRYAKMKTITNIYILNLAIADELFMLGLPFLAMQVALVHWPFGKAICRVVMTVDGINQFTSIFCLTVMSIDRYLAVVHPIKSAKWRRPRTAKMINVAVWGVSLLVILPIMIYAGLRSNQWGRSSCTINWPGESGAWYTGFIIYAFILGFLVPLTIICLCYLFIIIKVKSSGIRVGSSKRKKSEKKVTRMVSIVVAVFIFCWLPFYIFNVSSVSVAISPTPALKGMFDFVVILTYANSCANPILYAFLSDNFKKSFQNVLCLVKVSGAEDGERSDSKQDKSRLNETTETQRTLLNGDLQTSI
T1 sequence (P02768 25-609): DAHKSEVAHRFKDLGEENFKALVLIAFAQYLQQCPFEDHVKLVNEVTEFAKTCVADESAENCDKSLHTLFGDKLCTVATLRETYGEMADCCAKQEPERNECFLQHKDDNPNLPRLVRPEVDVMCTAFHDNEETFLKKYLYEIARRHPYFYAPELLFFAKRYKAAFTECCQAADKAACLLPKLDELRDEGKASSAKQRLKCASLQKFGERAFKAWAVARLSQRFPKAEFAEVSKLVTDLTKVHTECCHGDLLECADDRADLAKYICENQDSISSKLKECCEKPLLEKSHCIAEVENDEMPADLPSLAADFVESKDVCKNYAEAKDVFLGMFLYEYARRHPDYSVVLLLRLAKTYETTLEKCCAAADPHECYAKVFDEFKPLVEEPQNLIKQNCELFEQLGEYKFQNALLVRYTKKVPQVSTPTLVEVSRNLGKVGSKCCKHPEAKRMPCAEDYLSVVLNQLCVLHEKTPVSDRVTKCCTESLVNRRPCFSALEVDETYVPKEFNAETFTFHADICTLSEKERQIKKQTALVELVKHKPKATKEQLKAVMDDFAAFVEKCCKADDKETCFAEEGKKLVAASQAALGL

For `C[C@@H](O)[C@H](NC(=O)[C@@H]1CSSC[C@H](NC(=O)[C@@H](Cc2ccccc2)NC(=O)CN2CCN(CC(=O)O)CCN(CC(=O)NCCCC[C@@H](NC(=O)[C@@H](CNC(=O)C[N+](C)(C)Cc3ccc([Si](F)(C(C)(C)C)C(C)(C)C)cc3)NC(=O)[C@@H](CCC(=O)O)NC(=O)[C@@H](CCC(=O)O)NC(=O)[C@H](N)CCC(=O)O)C(=O)O)CCN(CC(=O)O)CC2)C(=O)N[C@@H](Cc2ccc(O)cc2)C(=O)N[C@H](Cc2c[nH]c3ccccc23)C(=O)N[C@@H](CCCCN)C(=O)N[C@@H]([C@@H](C)O)C(=O)N1)C(=O)O` [[^18/natF][^natGa]rhTATE2.5, metal not drawn], the “LogDpH=7.4” value in series [1] is −2.30. For the same compound, the “HSA HPAC” value in series [2] (setting [6]) turned out to be 84.8%. In addition, the Internalization in the series with AR42J cells is 357%. Besides, the tissue uptake at 1 h turned out to be 1.52 ± 0.21 %ID/g in series [3] (setting [7]); 0.32 ± 0.11 %ID/g in series [3] (setting [8]); 1.05 ± 0.3 %ID/g in series [3] (setting [9]); 0.18 ± 0.05 %ID/g in series [3] (setting [10]); 1.3 ± 0.25 %ID/g in series [3] (setting [11]); 12.5 ± 3.5 %ID/g in series [3] (setting [12]). Moreover, the tissue uptake at 1 h came out at 0.4 ± 0.12 %ID/g in series [3] (setting [13]); 2.73 ± 0.46 %ID/g in series [3] (setting [14]); 0.04 ± 0.02 %ID/g in series [3] (setting [15]); 11.5 ± 2.32 %ID/g in series [3] (setting [16]); 0.35 ± 0.07 %ID/g in series [3] (setting [17]); 6.46 ± 1 %ID/g in series [3] (setting [18]). The tissue uptake at 1 h in series [3] (setting [19]) stood at 18.6 ± 6.18 %ID/g. Also, on SST2 (AR42J tumor) (setting [20]), the “µPET kidney activity with SST2 blocking” value is “significantly reduced kidney activity”. Further, the “µPET tumor signal with SST2 blocking” value at SST2 (AR42J tumor) (setting [20]) is “no detectable tumor signal”. Besides, the “µPET uptake in the tumor and kidneys” value at SST2 (AR42J tumor) (control mouse, 4 MBq, 0.5 nmol tracer/mouse) is “intense”. In addition, in series [4], the in vitro stability result was “stable over 60 min”.
On to `CC(=O)N[C@@H]1[C@@H](O)[C@H](O)[C@@H](CO)O[C@H]1NC(=O)C[C@H](NC(=O)C[N+](C)(C)Cc1ccc([Si](F)(C(C)(C)C)C(C)(C)C)cc1)C(=O)N[C@@H](CC(=O)O)C(=O)N[C@@H](CC(=O)O)C(=O)NCCOCCOCC(=O)N[C@H](Cc1ccccc1)C(=O)N[C@H]1CSSC[C@@H](C(=O)N[C@H](C(=O)O)[C@@H](C)O)NC(=O)[C@H]([C@@H](C)O)NC(=O)[C@H](CCCCN)NC(=O)[C@@H](Cc2c[nH]c3ccccc23)NC(=O)[C@H](Cc2ccc(O)cc2)NC1=O` [[^nat/18F]SiTATE, SiFAlin-Asn(Ac-NHβGlc)Asp2-PEG1-TATE, reference compound], for which, in series [1], the “LogDpH=7.4” value is reported as −1.27. In series [2] (setting [6]), the “HSA HPAC” value stood at 86.8%. The Internalization in the series with AR42J cells is on record as 236%. For the same compound, the tissue uptake at 1 h in series [3] (setting [7]) is 1.89 ± 0.37 %ID/g; in series [3] (setting [8]), 0.81 ± 0.11 %ID/g; in series [3] (setting [9]) it was 1.54 ± 0.34 %ID/g; in series [3] (setting [10]), 0.47 ± 0.06 %ID/g; in series [3] (setting [11]), 1.67 ± 0.21 %ID/g; in series [3] (setting [12]), 16.3 ± 1 %ID/g. For the same compound, the tissue uptake at 1 h in series [3] (setting [13]) is 1.97 ± 0.25 %ID/g; in series [3] (setting [14]) it was 3.38 ± 0.62 %ID/g; in series [3] (setting [15]) it was 0.15 ± 0.02 %ID/g; in series [3] (setting [16]), 8.94 ± 1.98 %ID/g; in series [3] (setting [17]), 0.66 ± 0.08 %ID/g; in series [3] (setting [18]), 6.75 ± 0.58 %ID/g. For the same compound, the tissue uptake at 1 h in series [3] (setting [19]) was 22.7 ± 2.68 %ID/g.
In the case of `C[C@@H](O)[C@H](NC(=O)[C@@H]1CSSC[C@H](NC(=O)[C@@H](Cc2ccccc2)NC(=O)CN2CCN(CC(=O)O)CCN(CC(=O)O)CCN(CC(=O)O)CC2)C(=O)N[C@@H](Cc2ccc(O)cc2)C(=O)N[C@H](Cc2c[nH]c3ccccc23)C(=O)N[C@@H](CCCCN)C(=O)N[C@@H]([C@@H](C)O)C(=O)N1)C(=O)O` [[^nat/68Ga]DOTA-TATE, metal not drawn, reference compound], the “HSA HPAC” value in series [2] is given as 88.9%. This compound also showed an Internalization in the series on AR42J cells of 570%. In addition, the “LogDpH=7.4” value in series [5] was −3.69 [24].
